Measured values as given in article PMC10671050, “Alkyl Derivatives of Perylene Photosensitizing Antivirals: Towards Understanding the Influence of Lipophilicity” (International Journal of Molecular Sciences, 2023).
Values after ≈ are worked out from the molar mass of the structure shown. “Also recorded” adds a separate entry of the source. Read-outs that look alike come from different tables or passages of the source.

Legend:
[1] = assay type: physicochemical; settings: methanol, DPBF trap, 450–470 nm, relative to riboflavin
[2] = Solubilization in 15% DMSO in water; settings: for solubility: aqueous with cosolvent or surfactant or cyclodextrin, kinetic from dmso stock
Description: To perform this measurement, the compound was dissolved in DMSO and then diluted with water to achieve a solution containing 15% DMSO. The solution was centrifuged, and the resulting supernatant was lyophilized (evaporated) to dryness. Subsequently, the dry residue was dissolved in DMSO, and the concentration of the compound dissolved in DMSO was determined spectrophotometrically.
The mixtures were then centrifuged at 20,000 rcf for 5 min; 500 μL of the supernatant were collected and lyophilized; 76 µL of DMSO were added to the dry residue, and the absorbance was measured at the maximum absorption wavelength for compounds in solutions diluted 200 times with methanol. The data obtained were recalculated according to the law of dilutions and Beer’s law to obtain the initial concentrations of the compounds solubilized in 15% DMSO in water.

HSV-1 envelope = HSV-1 envelope interaction studies (intercalation assay); assay type: cell-based, herpes simplex virus-1; settings: 2 and 10 µM, pre-incubation at 37 °C, Vero cells
HSV-1, strain MacIntyre [3] = assay: Photodynamic inactivation of HSV-1 (virus treated with compound, plaque assay); assay type: cell-based, herpes simplex virus-1; settings: for EC50: Human alphaherpesvirus 1, 10 min, HSV-1 10^4 PFU/mL, plaque assay
HSV-1 virus-cell fusion = assay: HSV-1-based fusion assay; assay type: cell-based, herpes simplex virus-1; settings: for plaque numbers in fusion assay: Vero cells; for plaque size in fusion assay: Vero monolayers in presence of compound
Description: In the fusion assay, HSV-1 was attached to Vero cells at 4 °C, but virus–cell fusion was blocked due to the low temperature.
HSV-1 (100 PFU/mL) was then added to the cells and incubated at 4 °C for 2 h. After incubation, the cell monolayers were washed three times with ice-cold PBS to remove un-adsorbed virus, and fresh ice-cold medium containing the tested compounds (0, 0.08, 2, and 10 µM) was added to the cells and incubated for 2 h at 4 °C. After another 2 h incubation at 37 °C, the medium was aspirated, the cells were washed with PBS and fresh medium containing 1.5% carboxymethylcellulose was added to the cells.

Vero cells = assay: Light-induced cytotoxicity (photocytotoxicity) in Vero cells; assay type: cell-based, African Green Monkey; settings: blue light 10 min vs daylight, 0–10 µM, 48 h
Description: (§1) Subsequently, cells treated with the compounds were irradiated with LEDs (465–480 nm, 30 mW/cm^2) for 10 min at RT. As a negative control, compound-treated cells were incubated for 10 min in daylight at RT. Then, both the irradiated and non-irradiated cell monolayers were incubated at 37 °C in the dark for 48 h. Subsequently, the cell culture medium was aspirated and the cytotoxicity of the tested perylene derivatives was determined based on cell viability using Cell Counting Kit-8 (Dojindo Molecular Technologies, Munich, Germany) according to the manufacturer’s instructions. Note: all manipulation with samples was performed in daylight (Figure 7K).

[4] = as above; assay type: cell-based, African Green Monkey; settings: African green monkey, Vero cells; blue light 465–480 nm, 10 min, then 48 h; read-out: cell viability of Vero cells after irradiation
Description: as §1

VSV Indiana strain = assay: microbe, parasite or virus in culture; assay type: cell-based, vesicular stomatitis Indiana virus; settings: Vesicular stomatitis virus, HEK-293T, 1 h, read-out: VSV, EC50
HSV-1, strain MacIntyre [5] = assay: HSV-1 titer reduction assay in Vero cells; settings: 10 µM, 48 h; for viral replication and spread in HSV-1-infected Vero cell culture: inside cell culture (Figure 6C); for anti-HSV-1 activity in Vero cells: viral titer in medium supernatant
[6] = 10 min in daylight, read-out: EC50 (µM) in Daylight
[7] = blue light 465–480 nm, 30 mW/cm^2, 10 min, read-out: EC50 (µM) under Blue Light

Structure (SMILES) | 1O2 Quantum Yield [1] [%] | solubility in 15% DMSO in water [2] | solubility [2] [µM] | plaque formation after pretreatment of HSV-1 (HSV-1 envelope) | Decrease in EC50 (Fold) (HSV-1, strain MacIntyre [3]) [fold] | EC50 (HSV-1, strain MacIntyre [3]; [6]) [µM] | EC50 (HSV-1, strain MacIntyre [3]; [7]) [µM] | plaque numbers in fusion assay (HSV-1 virus-cell fusion; 0.08 µM) | plaque size in fusion assay (HSV-1 virus-cell fusion) | plaque numbers in fusion assay (HSV-1 virus-cell fusion; most pronounced at 2 and 10 µM) | photocytotoxicity to Vero cells (Vero cells) | viability at 48 h [4] [%] | EC50 (VSV Indiana strain) [nM] | viral replication and spread in HSV-1-infected Vero cell culture (HSV-1, strain MacIntyre [5]) | anti-HSV-1 activity in Vero cells (HSV-1, strain MacIntyre [5])
CCCCc1ccc2c3cccc4c(C#Cc5cn([C@@H]6O[C@H](CO)[C@@H](O)[C@@H]6O)c(=O)[nH]c5=O)ccc(c5cccc1c52)c43 [Compound 9a, 5-[9(10)-Butylperylen-3-ylethynyl]-arabino-uridine] | 31.9 ± 8.5 | relatively high solubility | 0.6 (≈ 0.345 µg/mL) | completely inhibited the ability of the virus to form plaques | 21.9 | 2.23 | 0.102 | plaque numbers were similar to controls | significantly smaller plaques | reduction in plaque numbers | did not increase the cytotoxicity | 115 to 128 | 2000 ± 1800 | did not suppress viral replication and spread | completely inhibited viral replication; also recorded: higher antiviral potency compared to acyclovir
CCCCc1ccc2c3cccc4c(C#Cc5cn([C@H]6C[C@H](O)[C@@H](CO)O6)c(=O)[nH]c5=O)ccc(c5cccc1c52)c43 [Compound 11a, 5-[9(10)-Butylperylen-3-ylethynyl]-deoxy-uridine] | 23.6 ± 1.4 | relatively high solubility | 0.51 (≈ 0.285 µg/mL) | completely inhibited the ability of the virus to form plaques | 18.6 | 1.83 | 0.098 | plaque numbers were similar to controls | significantly smaller plaques | reduction in plaque numbers |  |  | 500 ± 100 | did not suppress viral replication and spread | completely inhibited viral replication; also recorded: higher antiviral potency compared to acyclovir
